4 compounds from US10214583B2, “Sodium pump antibody agonists and methods of treating heart disease using the same” (priority 2011, dated 2019) can be followed below.

“Also recorded” adds a separate entry of the source.

Experiment [1] concerns isolated rat myocytes. In words: Nifedipine and KB-R7943 sensitive 45Ca influx. The class given is cell-based. Here is the method: The reaction was stopped by adding 5 mM EGTA on ice and cells were washed and spun at 4000 rpm for 2 min (×3) to remove extracellular ^45Ca. Net intracellular counts per minute (cpm) of ^45Ca for each sample was determined by using a β-scintillation counter and the concentration of ^45Ca was calculated as described previously (20).

For experiment [2], the system named is isolated rat cardiac myocytes. In words: Sodium Green fluorescence (intracellular Na+). The class given is cell-based. How it is done: The final concentration of Sodium Green in each sample tube was 10 μM during the incubation. The myocytes were then transferred to 96-well plates (Nunc) and the measurement of Sodium Green fluorescence was carried out by excitation at 485 nm and quantifying emission at 535 nm using a VICTOR-II multilabel counter (PerkinElmer Life Sciences).

The test system of experiment [3] is Spontaneously Hypertensive Heart Failure (SHHF) rats. In words: Immunization of late-stage SHHF rats, heart function by echo. As to conditions: 14 months old SHHF rats, control rat died. Type of experiment: in vivo. Here is the method: Studies were also conducted on the ability of NKA alpha subunit peptides to induce a therapeutic immune response in late-stage Spontaneously Hypertensive Heart Failure (SHHF) rats. The SHHF rats used for this study were 14 months old with late-stage heart failure. The heart function was measured by echo and expressed as percent of fractional shortening (FS %). The initial heart functions were 26.0% and 28.0% for control SHHF rat and the one with immunization, respectively. […] The peptide with which the rats were immunized has the following amino acid sequence […] (SEQ ID NO:7), as disclosed in U.S. Pat. No. 7,754,210.

In experiment [4] the test system is isolated rat cardiac myocytes. In words: Rat myocyte contractility (cell shortening). Type of experiment: cell-based. Conditions: 0.1 mM PB2948 + 0.5 μM JY2948. An excerpt:
Rat ventricular myocytes were isolated as described (18). The contraction amplitude was indexed by the percentage shortening of cell length (19).

Experiment [5] has as its system NKA β1 subunit. In words: Specificity analysis by Western blotting. The class given is binding, pig, dog, rat. As to conditions: PB2948. How it is done: Samples of purified rat and dog NKA, along with SDS-stripped pig α1 and β1 subunits (30 μg each) were mixed with electrophoresis sample buffer separately, boiled for 5 min, and loaded on freshly made 7.5% SDS-PAGE gel. Following electrophoresis, the samples were transferred from the SDS gel to a nitrocellulose membrane (0.45 μm). […] The membranes were then washed and incubated with secondary antibody (1:7500) for 1 hour. The color was then developed for visual analysis.
A general note: Immunoblotting shows a protein as a band on a membrane.

For `N=C(N)SCCc1ccc(OCc2ccc([N+](=O)[O-])cc2)cc1` [KB-R7943], in experiment [1] (KB-R7943 (5 μM)), the “effect on JY2948-induced 45Ca influx” value is reported as “failed to inhibit”. For the same compound, in experiment [1] (KB-R7943 alone (504 [sic])), the “changes of 45Ca concentration compared with control cell background” value is “No significant changes”. In addition, the “Sodium Green fluorescence intensity” value in experiment [2] (5 μM KB-R7943 alone, control 100) was found to be 99±10%; in experiment [2] (30 μM KB-R7943 alone, control 100) it was 102±7.0%.

Regarding `C[C@@H]1O[C@@H](O[C@H]2C[C@@H](O)[C@]3(CO)[C@H]4[C@H](O)C[C@]5(C)[C@@H](C6=CC(=O)OC6)CC[C@]5(O)[C@@H]4CC[C@]3(O)C2)[C@H](O)[C@H](O)[C@H]1O` [ouabain], the “ouabain-induced 45Ca influx relative to JY2948/β1 subunit-induced influx” value in experiment [1] turned out to be 4.4 fold. Moreover, the “share of ouabain-induced 45Ca influx through LTCC” value in experiment [1] is recorded as “approximately 40%”. The “share of ouabain-induced 45Ca influx through NCX” value in experiment [1] is listed as approximately 60%. Moreover, the 45Ca influx in experiment [1] (ouabain 2.5 mM alone) turned out to be 330±6.4 pCi. In experiment [1] (ouabain + 10 μM nifedipine), the “nifedipine-resistant 45Ca influx” value worked out at 188±78 pCi. The “ouabain-induced 45Ca influx” value in experiment [1] (ouabain + both nifedipine and KB-R7943) was “completely impeded; also recorded: completely abolished”. Further, the figures for the “Sodium Green fluorescence intensity” value in experiment [2] (ouabain (2.5 mM)), in experiment [2] (ouabain + 5 μM KB-R7943) and in experiment [2] (ouabain + 30 μM KB-R7943) were 136±13%, 153±19% and 151±23%, respectively.

On to “DVEDSYGQQWTYEQR (chemically-synthesized antigen) [SEQ ID NO:7, NKA alpha subunit peptide used to immunize SHHF rats, disclosed in U.S. Pat. No. 7,754,210]”, for which the “late-stage SHHF rat cardiac function (fractional shortening, FS %)” value in experiment [3] is recorded as “significantly improved”.

Consider “KERGEFNHERGER (listed as Rattus norvegicus) [PB2948]”, for which the “JY2948-induced positive inotropic effect in the presence of peptide blocker” value in experiment [4] was “completely eliminated”. Further, the “interaction between JY2948 and native β1 subunit in presence of peptide blocker” value in experiment [5] is reported as “completely abolished”.
